US20250214969A1, “PROTEIN DEGRADERS AND USES THEREOF” (Kymera Therapeutics, Inc., priority 2022, published 2025)

What was measured:
[1] = target: T1, truncated His-MBP-Tev-KLHDC2 (residues 1-363) (Homo sapiens, UniProt Q9Y2U9); assay: KLHDC2 FP competition binding assay; settings: 15 nM KLHDC2 (residues 1-363), 10 nM fluorescein-labeled diglycine peptide probe, read-out: KLHDC2 binding Human FP: average external IC50
T1 construct: truncated His -MBP-Tev-KLHDC2 (residues 1-363) purified from E. coli; made in house; host or cells: E. coli
T1 sequence (Q9Y2U9 1-363): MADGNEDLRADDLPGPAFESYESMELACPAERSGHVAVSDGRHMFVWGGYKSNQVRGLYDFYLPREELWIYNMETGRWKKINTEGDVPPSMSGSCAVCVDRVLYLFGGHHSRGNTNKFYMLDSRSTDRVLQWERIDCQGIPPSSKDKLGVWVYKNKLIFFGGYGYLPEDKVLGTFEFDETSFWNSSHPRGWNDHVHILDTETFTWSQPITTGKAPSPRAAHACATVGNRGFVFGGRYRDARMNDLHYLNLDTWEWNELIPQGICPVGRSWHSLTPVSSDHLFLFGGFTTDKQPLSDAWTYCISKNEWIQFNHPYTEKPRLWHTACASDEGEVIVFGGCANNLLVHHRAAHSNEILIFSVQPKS

[2] = target: T1, truncated His-MBP-Tev-KLHDC2 (residues 1-363); assay: KLHDC2 HTRF binding assay; settings: 1 nM KLHDC2 (residues 1-363), fluorescein-labeled diglycine peptide probe

| SMILES | IC50 [1] [µM] | IC50 [2] [µM] |
| --- | --- | --- |
| Cc1sc2c(c1C)C(c1ccc(Cl)cc1)=N[C@@H](CC(=O)NCCCCCCn1ccc3c(C(=O)Nc4ccc(=O)n(CC(=O)O)c4)cccc31)c1nnc(C)n1-2 [I-474] | < 0.05 | < 0.05 |
| O=C(O)Cn1cc(-c2cccc(OCc3ccccc3)c2)ccc1=O [I-300] | > 5 | > 5 |
| Cc1cc(C)cc(-c2ccc(=O)n(CC(=O)O)c2)c1 [I-408] | > 5 | > 5 |
| O=C(O)C1CC(=O)N(C2CC2)C1 (centres unmarked) [I-216] | > 5 | > 5 |
| Cc1cc(-c2ccc(=O)n(CC(=O)O)c2)ccc1OCc1ccccc1 [I-323] | > 5 | > 5 |
| O=C(O)Cn1cc(-c2cncc(/C=C/c3ccccc3)c2)ccc1=O [I-287] | > 5 | > 5 |
| CCOC(=O)Cn1cc(NC(=O)c2cccc(-c3cncc(CCCCCCN)c3)c2)ccc1=O [I-159] | > 5 | > 5 |
| Cc1cccc(C)c1-c1ccc(=O)n(CC(=O)O)c1 [I-404] | > 5 | > 5 |
| COc1ccc(-c2ccc(=O)n(CC(=O)O)c2)cn1 [I-327] | > 5 | > 5 |
| O=C(O)Cn1cc(-c2cccc(CCc3ccccc3)c2)ccc1=O [I-295] | > 5 | > 5 |
| COc1cc(-c2ccc(F)c(CCCCCCCCCNC(=O)C[C@@H]3N=C(c4ccc(Cl)cc4)c4c(sc(C)c4C)-n4c(C)nnc43)c2)ccc1C(=O)Nc1ccc(=O)n(CC(=O)O)c1 [I-469] | 0.05 to 0.5 | 0.5 to 5 |
| Cc1cc(-c2ccc(=O)n(CC(=O)O)c2)c(C)cc1F [I-348] | > 5 | > 5 |
| Cc1ccc(Cl)c(-c2ccc(=O)n(CC(=O)O)c2)c1 [I-342] | > 5 | > 5 |
| CCOC(=O)Cn1cc(NC(=O)c2ccc(CCCCCCNC(=O)OC(C)(C)C)c(-c3cccnc3)c2)ccc1=O [I-150] | > 5 | > 5 |
| O=C(O)Cn1cc(-c2ccccc2F)ccc1=O [I-395] | > 5 | > 5 |
| O=C(O)Cc1cccc(NC(=O)CCc2cccc(OC3CCCC3)c2)c1 [I-351] | > 5 | > 5 |
| O=C(O)Cn1ccccc1=O [I-428] | > 5 | > 5 |
| O=C(O)CN1CC(NC(=O)c2ccccc2)CCC1=O (centres unmarked) [I-271] | > 5 | > 5 |
| CC(C)c1ccc(S(=O)(=O)NCCC(=O)Nc2ccc(=O)n(CC(=O)O)c2)cc1 [I-180] | > 5 | > 5 |
| O=C(O)Cc1cc(NC(=O)c2cccc(-c3cccnc3)c2)ccc1Cl [I-60] | > 5 | 0.5 to 5 |
| CC(C)(C)OC(=O)NCCCCCCc1ccncc1-c1cccc(C(=O)Nc2ccc(=O)n(CC(=O)O)c2)c1 [I-164] | 0.5 to 5 | 0.05 to 0.5 |
| O=C(O)Cn1cc(N2CCCCC2)ccc1=O [I-357] | > 5 | > 5 |
| Cn1ccc2c(-c3ccc(=O)n(CC(=O)O)c3)cccc21 [I-333] | > 5 | > 5 |
| CCOC(=O)Cn1cc(NC(=O)c2cc(CCCCCCNC(=O)OC(C)(C)C)cc(-c3cccnc3)c2)ccc1=O [I-162] | > 5 | > 5 |
| CCOC(=O)Cn1cc(NC(=O)c2cccc(-c3cnccc3CCCCCCNC(=O)OC(C)(C)C)c2)ccc1=O [I-156] | > 5 | > 5 |
| O=C(O)C1CC(=O)N(Cc2cccnc2)C1 (centres unmarked) [I-220] | > 5 | > 5 |
| O=C(O)Cn1cc(-c2ccccc2Cl)ccc1=O [I-379] | > 5 | > 5 |
| CCN1C(=O)CCC(C(=O)O)C1c1cnn(C)c1 (centres unmarked) [I-217] | > 5 | > 5 |
| O=C(O)Cn1cc(-c2cccc3[nH]ccc23)ccc1=O [I-339] | > 5 | > 5 |
| NC(=O)Cc1ccc(-c2ccc(=O)n(CC(=O)O)c2)cc1 [I-313] | > 5 | > 5 |

Now from value to compound:

| IC50 [1] [µM] | IC50 [2] [µM] | SMILES |
| --- | --- | --- |
| > 5 | > 5 | CCc1ccccc1C(=O)Nc1ccc(=O)n(CC(=O)O)c1 [I-318] |
| > 5 | 0.5 to 5 | O=C(O)Cn1cc(NC(=O)c2cccc(-c3cccnc3)c2Cl)ccc1=O [I-42] |
| > 5 | 0.5 to 5 | O=C(O)Cn1cc(NC(=O)c2cccc(-c3cccnc3)c2)c(C(F)(F)F)cc1=O [I-73] |
| > 5 | > 5 | O=C(O)Cn1cc(NC(=O)CCNC(=O)c2ccc3ccccc3c2)ccc1=O [I-190] |
| > 5 | 0.05 to 0.5 | CC(C)Cn1ccc2c(C(=O)Nc3ccc(=O)n(CC(=O)O)c3)cccc21 [I-238] |
| > 5 | > 5 | NC(=O)Cn1cc(NC(=O)c2cccc(-c3cccnc3)c2)ccc1=O [I-123] |
| > 5 | > 5 | O=C(O)Cn1cc(NC(=O)N2CCC(c3ccccc3)CC2)ccc1=O [I-140] |
| 0.5 to 5 | 0.05 to 0.5 | Cc1cc(=O)n(CC(=O)O)cc1NC(=O)[C@H]1CCCN(c2cccnc2)C1 [I-84] |
| > 5 | > 5 | N#Cc1cccc(-c2ccc(=O)n(CC(=O)O)c2)c1 [I-324] |
| < 0.05 | < 0.05 | COc1cccc2c(N3CCC[C@H](C(=O)Nc4ccc(=O)n(CC(=O)O)c4)C3)cncc12 [I-9] |
| > 5 | > 5 | O=C(O)Cn1cc(C(=O)NCc2ccccc2)ccc1=O [I-373] |
| 0.05 to 0.5 | < 0.05 | O=C(O)Cn1cc(NC(=O)[C@H]2CCCN(c3cccnc3)C2)ccc1=O [I-91] |
| > 5 | > 5 | O=C(O)Cn1cc(NC(=O)c2cccc(-c3ccc(C(F)(F)F)cc3)c2)ccc1=O [I-199] |
| > 5 | 0.5 to 5 | Cn1ccc2c(C(=O)Nc3ccc(=O)n(CC(=O)O)c3)cccc21 [I-145] |
| 0.5 to 5 | 0.05 to 0.5 | O=C(O)Cn1cc(NC(=O)[C@@H]2C[C@H](C(F)(F)F)CN(c3cccnc3)C2)ccc1=O [I-65] |
| > 5 | > 5 | O=C(O)Cn1cc(NC(=O)[C@H]2CCCN(c3cccnc3)C2)c(C(F)(F)F)cc1=O [I-67] |
| > 5 | > 5 | O=C(O)Cn1cc(NC(=O)COc2ccc(Oc3ccccc3)cc2)ccc1=O [I-244] |
| > 5 | > 5 | O=C(O)Cn1cc(NC(=O)c2ccccc2)ccc1=O [I-382] |
| > 5 | > 5 | O=C(O)Cn1cc(NC(=O)c2cccc(-c3cccs3)c2)ccc1=O [I-172, 2-(2-oxo-5-(3-(thiophen-2-yl)benzamido)pyridin-1 (2H)-yl) acetic acid] |
| > 5 | > 5 | O=C(O)Cn1cc(N2Cc3ccccc3C2=O)ccc1=O [I-307] |

| IC50 [1] [µM] | IC50 [2] [µM] | SMILES |
| --- | --- | --- |
| > 5 | > 5 | O=C(O)Cn1cc(-c2ccc(N3CCCC3)nc2)ccc1=O [I-380] |
| > 5 | > 5 | O=C(O)Cn1cc(N2CCc3cccc(-c4cccnc4)c3C2=O)ccc1=O [I-74] |
| > 5 | > 5 | O=C(O)Cn1cc(-c2ccc(N3CCOCC3)cc2)ccc1=O [I-312] |
| < 0.05 | < 0.05 | O=C(O)Cn1cc(NC(=O)[C@H]2CCCN(c3cncc4ccccc34)C2)ccc1=O [I-41] |
| 0.5 to 5 | 0.5 to 5 | C[C@]1(C(=O)Nc2ccc(=O)n(CC(=O)O)c2)CCCN(c2cccnc2)C1 [I-75] |
| > 5 | 0.5 to 5 | O=C(O)Cn1cc(NC(=O)c2ccc3ccccc3c2)ccc1=O [I-211] |
| > 5 | 0.5 to 5 | COc1cc(-c2cccnc2)ccc1C(=O)Nc1ccc(=O)n(CC(=O)O)c1 [I-204] |
| > 5 | > 5 | O=C(O)Cn1cc(NC(=O)c2ccc(-c3cccnc3)s2)ccc1=O [I-205] |
| > 5 | 0.5 to 5 | O=C(O)Cn1cc(N2CC[C@@]3(CCN(c4cccnc4)C3)C2=O)ccc1=O [I-2] |
| 0.5 to 5 | 0.05 to 0.5 | CCc1cc(=O)n(CC(=O)O)cc1NC(=O)c1cccc(-c2cccnc2)c1 [I-54] |
| > 5 | > 5 | O=C(O)Cn1cc(NC(=O)c2ccccc2C(F)F)ccc1=O [I-321] |
| 0.5 to 5 | 0.05 to 0.5 | O=C(O)Cn1cc(NC(=O)[C@H]2C[C@H](C(F)(F)F)CN(c3cccnc3)C2)ccc1=O [I-64] |
| > 5 | 0.5 to 5 | O=C(O)Cn1cc(NC(=O)[C@@H]2CCCN(c3cccnc3)C2)c(Cl)cc1=O [I-82] |
| > 5 | > 5 | COc1nc2ccccc2cc1C(=O)Nc1ccc(=O)n(CC(=O)O)c1 [I-186] |
| > 5 | 0.5 to 5 | O=C(O)Cn1cc(NC(=O)[C@@H]2CCCN(c3cccnc3)C2)c(C2CC2)cc1=O [I-58] |
| > 5 | > 5 | COc1cc(C(=O)Nc2ccc(=O)n(CC(=O)O)c2)cc(-c2ccccc2)c1 [I-262] |
| > 5 | > 5 | O=C(O)Cn1cc(-c2ccc(C(F)(F)F)cc2)ccc1=O [I-372] |
| 0.05 to 0.5 | < 0.05 | COc1cncc(N2CCC[C@H](C(=O)Nc3ccc(=O)n(CC(=O)O)c3)C2)c1 [I-45] |
| 0.5 to 5 | 0.05 to 0.5 | O=C(O)Cn1cc(NC(=O)c2cccc(-c3nc4ccccc4s3)c2)ccc1=O [I-138] |
| > 5 | > 5 | O=C(O)Cn1cc(NC(=O)[C@H]2CC[C@H](NC(=O)C3CCCC3)CC2)ccc1=O [I-183] |
